{
  "source": "patent EP2686338B1",
  "about": "“FUNCTIONALIZED BIOMATERIALS FOR TISSUE REGENERATION” (Nanomed3d S.r.l., priority 2011, dated 2018)",
  "note": "“Also recorded” adds a separate entry of the source. Residues, ends and D or L forms follow the SMILES beside them.",
  "data": [
    {"tested_on": "mouse NSC", "experiment": "NSC differentiation on exposure to soluble heptapeptides (immunofluorescence)", "format": "cell-based", "conditions": "12 DIV; peptide 0.1 mg/ml in media; Cultrex and Laminin coated wells; vs untreated NSCs, p<0.05", "description": "In vitro tests were performed as previously described (8), in order to assess whether the heptapeptides obtained of the present invention influence NSCs differentiation.\nMurine cells (at a concentration of 2x10^4 cells/cm^2) were seeded in each well (96 multi-well plate) previously coated with Cultrex-BME® substrate (R&D systems) (1:100 dilution in basal medium, overnight incubation) or with Laminin (Roche) (1:5 dilution in PBS 1x, pH 7.4, overnight incubation).\nInitially, cells were cultured with basal medium supplemented with βFGF (10 ng/ml), added to enhance neuronal progeny differentiation. At 3 days in vitro (DIV), βFGF medium was replaced with Leukemia Inhibitory Factor (LIF, Chemicon) (20 ng/ml) and Brain Derived Neurotrophic Factor (BDNF, Peprotech) (20 ng/ml). Fresh medium was added every three days. The chosen peptides were dissolved in all cell culture media (but not in the coatings) at a concentration of 0.1 mg/ml.\nImmunofluorescence tests were performed for assaying the phenotypes of the differentiated murine NSC progenies. The following antibodies were used: rabbit polyclonal against GFAP (1:500, DakoCytomation) for astrocytes and mouse monoclonal against βIII-Tubulin (1:500, Covance) for neurons. Secondary Abs were Goat anti Mouse Alexa 488 (1:1000, Molecular Probes), Goat anti Mouse Cy3 (1:1000, Jackson Immunoresearch), Cell nuclei were counterstained with DAPI (Molecular Probes). Quantitative analyses were performed by counting 100-300 cells for each of 9 randomly chosen fields over a total of 3 independent experiments.\nValues, reported as means ± standard error of the mean (Figure 1A).", "values": [
      {"smiles": "CC[C@H](C)[C@H](NC(=O)[C@H](C)NC(=O)[C@@H](N)Cc1c[nH]cn1)C(=O)N[C@@H](Cc1ccc(O)cc1)C(=O)N1CCC[C@H]1C(=O)N[C@@H](CCCNC(=N)N)C(=O)N[C@@H](Cc1c[nH]cn1)C(N)=O", "note": "[#HAI, NH2-HAIYPRH-CONH2]", "percentage of differentiated neurons (Beta III Tubulin staining)": "significant increase"},
      {"smiles": "CC(C)C[C@H](NC(=O)[C@@H](N)CCCCN)C(=O)N1CCC[C@H]1C(=O)NCC(=O)N[C@@H](Cc1c[nH]c2ccccc12)C(=O)N[C@@H](CO)C(=O)NCC(N)=O", "note": "[#KLP, NH2-KLPGWSG-CONH2] (H-KLPGWSG-NH2)", "percentage of differentiated neurons (Beta III Tubulin staining)": "significant increase; also recorded: Highest increase of the neuronal phenotype"},
      {"smiles": "CC(C)C[C@H](NC(=O)[C@@H]1CCCN1C(=O)[C@H](C)NC(=O)[C@H](CCCNC(=N)N)NC(=O)[C@@H](NC(=O)[C@H](CCC(=O)O)NC(=O)CN)[C@@H](C)O)C(N)=O", "note": "[#GET, NH4-GETRAPL-CONH2] (H-GETRAPL-NH2)", "percentage of differentiated neurons (Beta III Tubulin staining)": "significant increase"}
    ]}
  ]
}
